Broadly, the IC50 is the concentration that inhibits the measured activity by half. A low value points to higher potency.

SMILES strings stand for the structures.

POLRMT, sequence (O00411 42-1230): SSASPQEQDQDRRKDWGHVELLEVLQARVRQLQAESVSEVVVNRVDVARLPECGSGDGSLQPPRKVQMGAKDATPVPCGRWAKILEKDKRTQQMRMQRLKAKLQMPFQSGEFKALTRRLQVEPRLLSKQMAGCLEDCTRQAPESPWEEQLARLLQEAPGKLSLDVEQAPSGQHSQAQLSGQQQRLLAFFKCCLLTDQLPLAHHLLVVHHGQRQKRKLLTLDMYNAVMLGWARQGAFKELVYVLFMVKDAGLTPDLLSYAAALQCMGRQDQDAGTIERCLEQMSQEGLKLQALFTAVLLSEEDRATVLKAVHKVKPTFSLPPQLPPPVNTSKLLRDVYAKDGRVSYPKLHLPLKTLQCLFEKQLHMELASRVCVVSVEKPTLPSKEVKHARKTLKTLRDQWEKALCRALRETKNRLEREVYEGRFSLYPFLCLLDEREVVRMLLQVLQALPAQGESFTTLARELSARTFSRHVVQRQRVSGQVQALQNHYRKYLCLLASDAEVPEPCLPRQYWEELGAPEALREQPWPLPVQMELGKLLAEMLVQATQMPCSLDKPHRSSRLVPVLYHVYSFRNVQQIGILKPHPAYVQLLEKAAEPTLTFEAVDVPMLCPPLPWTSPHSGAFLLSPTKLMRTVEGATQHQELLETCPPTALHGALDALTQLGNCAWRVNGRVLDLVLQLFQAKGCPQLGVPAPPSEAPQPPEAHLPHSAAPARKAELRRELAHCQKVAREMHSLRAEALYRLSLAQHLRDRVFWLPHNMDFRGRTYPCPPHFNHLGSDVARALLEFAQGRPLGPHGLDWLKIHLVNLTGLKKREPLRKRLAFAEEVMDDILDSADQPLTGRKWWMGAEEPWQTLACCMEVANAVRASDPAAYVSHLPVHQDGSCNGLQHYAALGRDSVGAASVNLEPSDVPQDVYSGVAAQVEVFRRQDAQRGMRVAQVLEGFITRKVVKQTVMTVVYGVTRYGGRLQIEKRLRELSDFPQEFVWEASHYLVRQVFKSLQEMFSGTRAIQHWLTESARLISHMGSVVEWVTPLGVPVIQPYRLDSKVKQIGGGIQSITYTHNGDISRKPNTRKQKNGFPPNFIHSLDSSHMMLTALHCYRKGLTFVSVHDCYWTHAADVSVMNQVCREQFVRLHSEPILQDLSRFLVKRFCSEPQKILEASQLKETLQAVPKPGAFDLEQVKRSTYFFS

The experiment has as its target POLRMT (Homo sapiens, UniProt O00411). In words: homogeneous TR-FRET assay of mitochondrial transcription (inhibition of POLRMT). To be noted: isoquinolinone compounds (Table 1). It counts as biochemical. As for the experimental part:
The inhibitory activity of the compounds of the present invention against POLRMT were determined by assays based on Bergbrede, T., et al., “An adaptable high-throughput technology enabling the identification of specific transcription modulators,” SLAC Discov., 22, 378-386 (2017).
The ability of some compounds of the present invention to inhibit POLRMT were determined in a homogeneous TR-FRET Assay using high-throughput screening in a 384-well plate format. This method is used to monitor the activity of mitochondrial transcription through measurement of its product, a 407 bp long RNA transcript. Detection of the product is facilitated by hybridization of two DNA-oligonucleotide probes to specific and adjacent sequences within the RNA product sequence. Upon annealing of the probes, two fluorophores are coupled directly to an acceptor nucleotide probe (ATTO647, 5′), or introduced via a coupled streptavidin with a biotinylated donor nucleotide probe (Europium cryptate) that is brought into sufficient proximity to serve as a fluorescence-donor-acceptor pair. Thus, a FRET signal at 665 nm is generated upon excitation at 340 nm.
Proteins used as transcription factors (POLRMT: NP_005026.3, TFAM: NP_003192.1, TFB2M: NP_071761.1) are diluted from their stocks to working concentrations of 1 μM, 20 μM and 4 μM respectively, in a dilution buffer containing 20 mM Tris-HCl (pH 8.0), 200 mM NaCl, 10% (v/v) glycerol, 1 mM Dithiothreitol (DTT), 0.5 mM EDTA.
DNA template is a pUC18 plasmid with the mitochondrial light strand promotor sequence (1-477) cloned between HindIII and BamHI sites. The DNA template is restriction linearized proximal to the promotor 3′-end (pUC-LSP).
The reaction mixture (10 uL) containing 7.5 nM POLRMT, 15 nM of TFB2M, 30 nM of TFAM, 0.5 nM of DNA template and 500 μM nucleotide triphosphate mix (NTPs) in a reaction buffer (containing 10 mM Tris-HCl (pH 7.5), 10 mM MgCl2, 40 mM NaCl, 10 mM DTT, 0.005% (w/v) Tween-20, 160 units/ml Rnase inhibitor and 0.1 mg/mL BSA) are dispensed to compounds in microplates, using a Thermo Multidrop® dispenser, and incubated at 37° C. in a VWR INCU-Line incubator for 60 minutes after mixing. No nucleotide triphosphate mix is added to negative control samples. Microplates with compounds to be tested in the assay are prepared from 10 mM compound stocks in 100% DMSO, equal amounts of DMSO without any compound are added to positive control and negative control samples.
During the incubation, a mix of the detection reagents is prepared in a buffer such that the enzymatic reaction is terminated due to chelating of Mg-ions and increased ionic strength, containing 50 mM Tris-HCl (pH 7.5), 700 mM NaCl, 20 mM EDTA, and 0.010% (w/v) Tween-20. Europium-streptavidin is pre-incubated with a 200-fold molar excess of a random sequence oligonucleotide to block unspecific binding of oligo, for two hours at ambient temperature in the dark. Afterwards, the blocked Europium-streptavidin is kept on ice until use.
At the end of the enzymatic reaction time, 5 μL detection oligo mix in the detection buffer is added, and assay plates are mixed and kept at ambient temperature for one hour, protected from light. The concentration of the Acceptor nucleotide oligo (e.g., ATTO647N-5′-[…]-3′) and Donor nucleotide oligo (e.g., bio-5′-AACACATCTCT(-bio)GCCAAACCCCA-bio-3′) in each assay well is 1 nM, and 3 nM, respectively.
After incubation with oligo mix, 5 μL of pre-blocked Europium-streptavidin reagent is dispensed to each assay well, assay plates are again mixed and kept at ambient temperature for one hour, protected from light.
The generated signal is measured with BMG Pherastar microtiter plate reader with a TRF light unit, using excitation at 340 nm, an integration time of 200 μs, and a delay time of 100 μs, before detection at 620 nm and 665 nm. The ratio of donor- and acceptor-fluorescence is used as a measure of the generated transcript product (i.e. enzymatic activity).
A general note: TR-FRET usually uses a lanthanide donor and a delayed reading to cut background.
`Cc1ccccc1-c1c[nH]c(=O)c2cc(CO)ccc12` [Example 15, 7-(hydroxymethyl)-4-(o-tolyl)isoquinolin-1(2H)-one] displayed an IC50 of 51 µM.

Compound `CC(=O)N1CC[C@@H](Oc2ccc3c(-c4ccccc4C)c[nH]c(=O)c3c2)C1` [Example 16, (R)-7-((1-acetylpyrrolidin-3-yl)oxy)-4-(o-tolyl)isoquinolin-1(2H)-one] registered an IC50 of 51 µM. That is a double-digit micromolar value.

`CC(=O)N1CC[C@H](Oc2ccc3c(-c4ccccc4C)c[nH]c(=O)c3c2)C1` [Example 17, (S)-7-((1-acetylpyrrolidin-3-yl)oxy)-4-(o-tolyl)isoquinolin-1(2H)-one] showed an IC50 of 82 µM. Compared with the last compound, the IC50 is about 1.6-fold higher.

For the compound `Cc1ccccc1-c1c[nH]c(=O)c2cc(C(=O)N3CCCC3)ccc12` [Example 19, 7-(pyrrolidine-1-carbonyl)-4-(o-tolyl)isoquinolin-1(2H)-one], the IC50 was over 100 µM.

In turn, `CNC(=O)[C@@H](C)Oc1ccc2c(-c3ccccc3C)c[nH]c(=O)c2c1` [Example 20, (R)—N-methyl-2-((1-oxo-4-(o-tolyl)-1,2-dihydroisoquinolin-7-yl)oxy)propanamide] yielded a half-inhibitory concentration (IC50) of 1 µM.

`Cc1ccccc1-c1c[nH]c(=O)c2cc(O[C@H](C)C(=O)N3CCC[C@H](C(=O)O)C3)ccc12` [Example 22, (S)-1-((R)-2-((1-oxo-4-(o-tolyl)-1,2-dihydroisoquinolin-7-yl)oxy)propanoyl)piperidine-3-carboxylic acid]: inhibition was half-maximal at 0.04 µM (IC50). This IC50 lies about 25-fold lower than the previous one.

The compound `Cc1ccccc1-c1c[nH]c(=O)c2cc(C(=O)N(C)C)ccc12` [Example 23, N,N-dimethyl-1-oxo-4-(o-tolyl)-1,2-dihydroisoquinoline-7-carboxamide] returned an IC50 of 75 µM.

In turn, `Cc1ccccc1-c1c[nH]c(=O)c2cc(O[C@H](C)C(=O)N3CCC(C(=O)O)CC3)ccc12` [Example 24, (R)-1-(2-((1-oxo-4-(o-tolyl)-1,2-dihydroisoquinolin-7-yl)oxy)propanoyl)piperidine-4-carboxylic acid] displayed an IC50 of 0.05 µM.

`CNC(=O)[C@H](C)Oc1ccc2c(-c3ccccc3C)c[nH]c(=O)c2c1` [Example 28, (S)—N-methyl-2-((1-oxo-4-(o-tolyl)-1,2-dihydroisoquinolin-7-yl)oxy)propenamide] gave an IC50 of 36 µM.

`Cc1ccccc1-c1c[nH]c(=O)c2cc(NC(=O)C(C)C)ccc12` [Example 30, N-(1-oxo-4-(o-tolyl)-1,2-dihydroisoquinolin-7-yl)isobutyramide] returned an IC50 of 2 µM. This IC50 lies about 18-fold lower than the previous one.

The compound `CC(=O)Nc1ccc2c(-c3ccccc3C)c[nH]c(=O)c2c1` [Example 31, N-(1-oxo-4-(o-tolyl)-1,2-dihydroisoquinolin-7-yl)acetamide] came in with a half-inhibitory concentration (IC50) of 8 µM.

`COCC(=O)Nc1ccc2c(-c3ccccc3C)c[nH]c(=O)c2c1` [Example 32, 2-methoxy-N-(1-oxo-4-(o-tolyl)-1,2-dihydroisoquinolin-7-yl)acetamide] gave a half-maximal inhibitory concentration (IC50) of 22 µM. Compared with the last compound, the IC50 is about 2.8-fold higher.

`CC(=O)N1CCC(C(=O)Nc2ccc3c(-c4ccccc4C)c[nH]c(=O)c3c2)CC1` [Example 33, 1-acetyl-N-(1-oxo-4-(o-tolyl)-1,2-dihydroisoquinolin-7-yl)piperidine-4-carboxamide]: the IC50 is over 100 µM.

Consider `CC(C)Oc1ccc2c(-c3ccccc3C#N)c[nH]c(=O)c2c1` [Example 34, 2-(7-isopropoxy-1-oxo-1,2-dihydroisoquinolin-4-yl)benzonitrile], for which the IC50 worked out at 14 µM. This lies in the double-digit micromolar range.

Compound `Cc1ccccc1-c1c[nH]c(=O)c2cc(O[C@H](C)C(=O)N3CC[C@H](C(=O)O)C3)ccc12` [Example 35, (S)-1-((R)-2-((1-oxo-4-(o-tolyl)-1,2-dihydroisoquinolin-7-yl)oxy)propanoyl)pyrrolidine-3-carboxylic acid] showed a half-inhibitory concentration (IC50) of 0.4 µM.

`Cc1ccccc1-c1c[nH]c(=O)c2cc(OCC#N)ccc12` [Example 36, 2-((1-oxo-4-(o-tolyl)-1,2-dihydroisoquinolin-7-yl)oxy)acetonitrile] registered an IC50 of 0.2 µM.

Compound `N#CCOc1ccc2c(-c3ccc(F)cc3Cl)c[nH]c(=O)c2c1` [Example 37, 2-((4-(2-chloro-4-fluorophenyl)-1-oxo-1,2-dihydroisoquinolin-7-yl)oxy)acetonitrile] returned an IC50 of 0.9 µM.

Regarding `Cc1ccccc1-c1c[nH]c(=O)c2cc(CN)ccc12` [Example 38, 7-(aminomethyl)-4-(o-tolyl)isoquinolin-1(2H)-one], the IC50 is over 100 µM.

Compound `CC(=O)NCc1ccc2c(-c3ccccc3C)c[nH]c(=O)c2c1` [Example 39, N-((1-oxo-4-(o-tolyl)-1,2-dihydroisoquinolin-7-yl)methyl)acetamide] displayed an IC50 of over 100 µM.

In turn, `CCOC(=O)C(C)Cc1ccc2c(-c3ccccc3C)c[nH]c(=O)c2c1` (stereo not shown) [Example 40, ethyl 2-methyl-3-(1-oxo-4-(o-tolyl)-1,2-dihydroisoquinolin-7-yl)propanoate] returned a concentration for half-maximal inhibition (IC50) of 1 µM. In other words, the single-digit micromolar range.

`Cc1ccccc1-c1c[nH]c(=O)c2cc(CC(C)C(=O)N3CCCCC3)ccc12` (stereo not shown) [Example 41, 7-(2-methyl-3-oxo-3-(piperidin-1-yl)propyl)-4-(o-tolyl)isoquinolin-1(2H)-one] registered an IC50 of 1 µM. In other words, the single-digit micromolar range.

For `CC(=O)N1CCCC(Oc2ccc3c(-c4ccccc4C)c[nH]c(=O)c3c2)C1` (stereo not shown) [Example 42, 7-((1-acetylpiperidin-3-yl)oxy)-4-(o-tolyl)isoquinolin-1(2H)-one], the IC50 stood at 7 µM.

As for `Cc1ccccc1-c1c[nH]c(=O)c2cc(NC(=O)C3CCN(C)CC3)ccc12` [Example 43, 1-methyl-N-(1-oxo-4-(o-tolyl)-1,2-dihydroisoquinolin-7-yl)piperidine-4-carboxamide], the half-inhibitory concentration (IC50) is over 100 µM.

Compound `COCc1ccc2c(-c3ccccc3C)c[nH]c(=O)c2c1` [Example 44, 7-(methoxymethyl)-4-(o-tolyl)isoquinolin-1(2H)-one] yielded an IC50 of 2 µM.

`CC(=O)N(C)Cc1ccc2c(-c3ccccc3C)c[nH]c(=O)c2c1` [Example 45, N-methyl-N-((1-oxo-4-(o-tolyl)-1,2-dihydroisoquinolin-7-yl)methyl)acetamide] registered an IC50 of over 100 µM.

On to `Cc1ccccc1-c1c[nH]c(=O)c2cc(NC(C)C(=O)N3CCOCC3)ccc12` (stereo not shown) [Example 46], for which the IC50 was determined as 2 µM.

The compound `Cc1ccccc1-c1c[nH]c(=O)c2cc(NC(C)C(=O)N(C)C)ccc12` (stereo not shown) [Example 47] yielded an IC50 of 11 µM. This IC50 lies about 5.5-fold higher than the previous one.

`Cc1ccccc1-c1c[nH]c(=O)c2cc(-c3ccccc3)ccc12` [Example 48, 7-phenyl-4-(o-tolyl)isoquinolin-1(2H)-one] returned an IC50 of 0.2 µM.

Turning to `COCC(Oc1ccc2c(-c3ccccc3C)c[nH]c(=O)c2c1)C(=O)O` (stereo not shown) [Example 51, 3-methoxy-2-((1-oxo-4-(o-tolyl)-1,2-dihydroisoquinolin-7-yl)oxy)propanoic acid], the IC50 is 6 µM.

For the compound `C[C@H](Oc1ccc2c(-c3ccc(F)cc3Cl)c[nH]c(=O)c2c1)C(=O)N1CCC[C@H](C(=O)O)C1` [Example 59, (S)-1-((S)-2-((4-(2-chloro-4-fluorophenyl)-1-oxo-1,2-dihydroisoquinolin-7-yl)oxy)propanoyl)piperidine-3-carboxylic acid], half-maximal inhibition (IC50) was put at 25 µM. This IC50 is about 4.2-fold higher than that of the compound before.

Take `C[C@H](Oc1ccc2c(-c3ccc(F)cc3Cl)c[nH]c(=O)c2c1)C(=O)N1CCC(C(=O)O)CC1` [Example 60, (S)-1-(2-((4-(2-chloro-4-fluorophenyl)-1-oxo-1,2-dihydroisoquinolin-7-yl)oxy)propanoyl)piperidine-4-carboxylic acid]: the IC50 came to 39 µM.
